This data set in a line: PK parameters after a single dose of three 50 mg tablets to a sample population (12). The data set is classed as in vivo. As to conditions: human, po, 150 mg, plasma, three 50 mg tablets of Example 4 in a single dose. As for the experimental part:
A 50 mg tablet as specified in Example 4 was prepared using the procedure described in Example 4. Three tablets were administered in a single dose to a sample population (12) and the PK parameters measured. These parameters are provided below.
Primary PK variables were […] and analyzed using a mixed effects linear model. Sequence, Period and Treatment factors were included in the model as fixed effects and subject as a random effect. 90% confidence intervals for PK variables (pharmacokinetic analysis population).
Drug Substance: Compound (iii); Matrix: Plasma; Analyte: Compound (iii).

Take `CC(C)c1cc2[nH]c(=O)n(NS(C)(=O)=O)c(=O)c2cc1-c1ccnn1C` [Compound (iii)]: where the note is “read-out: AUCinf, adjusted geometric mean”, the AUC(0-inf) is 16800 ng·h/mL. Also, the AUC(0-t) (read-out: AUClast, adjusted geometric mean) is 16800 ng·h/mL. Further, the Cmax – broadly, the peak of the concentration-time curve – (read-out: Cmax, adjusted geometric mean) was 2910 ng/mL.
